Data published in patent US11919918B2, “P2X3 andor P2X2/3 receptor antagonist, pharmaceutical composition comprising same, and use thereof” (BEIJING TIDE PHARMACEUTICAL CO., LTD., priority 2017, dated 2024).

Key:
human P2X3 receptor = human P2X3 receptor (Homo sapiens (Human), UniProt P56373); experiment: Inhibitory activity on human P2X3 receptor (calcium 6 dye FLIPR assay, agonist α,β-MeATP); format: cell-based; conditions: HEK293-P2X3 stably expressing cell line, FLIPR Tetra
Method: (§1) Biological Assay: Determination of the Inhibitory Activity of the Compounds on Human P2X3 and P2X2/3 Receptors
(§2) Cells were seeded into a poly-D-lysine-coated 384-well cell culture plate (Corning) at a density of 11,000 cells/well/25 μL of cell inoculation medium, and were cultured in a cell incubator overnight. On the day of the test, the calcium 6 dye was diluted to a 2× concentration with a assay buffer, 25 μL of the 2× calcium 6 dye was added to the 384-well cell culture plate, which was incubated at 37° C. for 2 hours, and then placed at room temperature for further use. The test compound and the agonist, α,β-MeATP were diluted to a 7× concentration with the assay buffer, 10 μL of the 7× test compound was added to the 384-well cell culture plate, which was incubated at room temperature for 15 minutes, and 10 μL of the 7× α,β-MeATP was transferred into the 384-well cell culture plate. The data were measured and analyzed using FLIPR Tetra, and the half inhibitory concentration (IC50) of the test compound on P2X3 and P2X2/3 receptors was calculated with the GraphPad Prism four-parameter equation.
(§3) Cell lines: human embryonic kidney cells HEK293-P2X3 and HEK293-P2X2/3 stably expressing cell lines;
(§4) Complete cell culture medium: DMEM High Glucose (Life Technology), which contained 10% fetal bovine serum, 4 mM GlutaMAX, 1% penicillin-streptomycin, and 350 μg/mL G418;
(§5) Cell inoculation medium: DMEM High Glucose (Life Technology), which contained 2% fetal bovine serum, and 4 mM GlutaMAX;
(§6) Cell culture conditions: 37° C., 5% CO2;
(§7) Assay buffer: HBSS (containing calcium and magnesium ions), which contained 20 mM HEPES;
(§8) Detection equipment: FLIPR Tetra (Molecular Devices);

human P2X2/3 receptor = human P2X2/3 receptor (Homo sapiens (Human), UniProt P56373+Q9UBL9); experiment: Inhibitory activity on human P2X2/3 receptor (calcium 6 dye FLIPR assay, agonist α,β-MeATP); format: cell-based; conditions: HEK293-P2X2/3 stably expressing cell line, FLIPR Tetra
Method: as §1, §2, §3, §4, §5, §6, §7, §8

human P2X3 receptor, sequence (P56373 whole entry): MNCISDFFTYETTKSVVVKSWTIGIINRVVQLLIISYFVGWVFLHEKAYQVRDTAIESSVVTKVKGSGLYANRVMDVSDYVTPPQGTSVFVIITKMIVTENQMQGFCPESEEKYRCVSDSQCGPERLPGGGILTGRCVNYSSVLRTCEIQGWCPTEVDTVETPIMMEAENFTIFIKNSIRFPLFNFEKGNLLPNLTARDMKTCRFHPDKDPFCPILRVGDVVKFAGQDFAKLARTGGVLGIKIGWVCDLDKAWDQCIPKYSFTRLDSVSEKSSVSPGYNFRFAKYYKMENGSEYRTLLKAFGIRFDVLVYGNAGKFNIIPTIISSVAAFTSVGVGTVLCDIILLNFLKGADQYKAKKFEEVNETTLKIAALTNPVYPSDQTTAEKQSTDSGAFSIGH
human P2X2/3 receptor, sequence (Q9UBL9 whole entry): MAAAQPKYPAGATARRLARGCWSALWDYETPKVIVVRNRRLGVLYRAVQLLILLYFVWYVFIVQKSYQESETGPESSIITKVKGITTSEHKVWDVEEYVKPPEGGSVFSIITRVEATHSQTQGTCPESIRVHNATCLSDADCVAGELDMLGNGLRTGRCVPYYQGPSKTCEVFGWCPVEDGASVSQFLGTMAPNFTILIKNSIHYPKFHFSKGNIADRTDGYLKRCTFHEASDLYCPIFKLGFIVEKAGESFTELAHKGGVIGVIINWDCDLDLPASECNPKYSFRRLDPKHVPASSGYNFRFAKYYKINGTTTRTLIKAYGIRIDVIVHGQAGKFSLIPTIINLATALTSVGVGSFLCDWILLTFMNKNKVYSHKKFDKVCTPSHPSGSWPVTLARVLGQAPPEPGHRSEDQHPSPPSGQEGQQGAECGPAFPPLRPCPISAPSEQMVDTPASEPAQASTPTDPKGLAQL
human P2X2/3 receptor, sequence (P56373 whole entry): as the sequence (P56373 whole entry) above

SMILES	IC50 (human P2X3 receptor) [nM]	IC50 (human P2X2/3 receptor) [nM]
CC(C)CNc1nc(N)ncc1Oc1cc(C2CC2)ncc1C(C)C [Compound C194, 5-((2-cyclopropyl-5-isopropyl-pyridin-4-yl)oxy)-N^4-isobutyl-pyrimidine-2,4-diamine]	322	446
C=C(C)c1cnc(OC)cc1Cc1cnc(N)nc1N [Compound C196, 5-((2-methoxy-5-(prop-1-en-2-yl)pyridin-4-yl)methyl)pyrimidine-2,4-diamine]	208	652
CC(C)c1cnc(Br)cc1Oc1cnc(N)nc1NCCN [Compound C199, N^4-(2-aminoethyl)-5-((2-bromo-5-isopropylpyridin-4-yl)oxy)pyrimidine-2,4-diamine]	186	333
CC(C)c1cnc(Br)cc1Oc1cnc(N)nc1NCCOCCO [Compound C201, 2-(2-((2-amino-5-((2-bromo-5-isopropylpyridin-4-yl)oxy)pyrimidin-4-yl)amino)ethoxy) ethanol]	316	498
CNCCNc1nc(N)ncc1Oc1cc(Br)ncc1C(C)C [Compound C202, 5-((2-bromo-5-isopropylpyridin-4-yl)oxy)-N^4-(2-(methylamino)ethyl)pyrimidine-2,4-diamine]	103	166
CC(C)c1cnc(Br)cc1Oc1cnc(N)nc1NCCN1CCOCC1 [Compound C203, 5-((2-bromo-5-isopropylpyridin-4-yl)oxy)-N^4-(2-morpholinoethyl) pyrimidine-2,4-diamine]	157	275
C=C(C)c1cnc(SC)cc1Oc1cnc(N)nc1N [Compound C208, 5-((2-(methylthio)-5-(prop-1-en-2-yl)pyridin-4-yl)oxy)pyrimidine-2,4-diamine]	75.3	106
CC[C@@H](CO)Nc1nc(N)ncc1Oc1cc(Br)ncc1C(C)C [Compound C209, (S)-2-((2-amino-5-((2-bromo-5-isopropylpyridin-4-yl)oxy)pyrimidin-4-yl)amino)but-1-ol]	144	209
CC(C)c1cnc(Br)cc1Oc1cnc(N)nc1NCCN1CCCC1 [Compound C210, 5-((2-bromo-5-isopropylpyridin-4-yl)oxy)-N^4-(2-(pyrrolidin-1-yl)ethyl) pyrimidine-2,4-diamine]	269	399
C#Cc1cc(Oc2cnc(N)nc2NCCO)c(C(C)C)cn1 [Compound C211, 2-((2-amino-5-((2-ethynyl-5-isopropylpyridin-4-yl)oxy)pyrimidin-4-yl)amino)ethanol]	64	121
C#Cc1cc(Oc2cnc(N)nc2NC(C)C)c(C(C)C)cn1 [Compound C212, 5-((2-ethynyl-5-isopropylpyridin-4-yl)oxy)-N^4-isopropylpyrimidine-2,4-diamine]	81	123
C#Cc1cc(Oc2cnc(N)nc2NC)c(C(C)C)cn1 [Compound C213, 5-((2-ethynyl-5-isopropylpyridin-4-yl)oxy)-N^4-methylpyrimidine-2,4-diamine]	112	295
C=C(C)c1cnc(NCC)cc1Oc1cnc(N)nc1N [Compound C214, 5-((2-(ethylamino)-5-(prop-1-en-2-yl)pyridin-4-yl)oxy)pyrimidine-2,4-diamine]	44	72
C#Cc1cc(Oc2cnc(N)nc2N)c(C(=C)C)cn1 [Compound C215, 5-((2-ethynyl-5-(prop-1-en-2-yl)pyridin-4-yl)oxy) pyrimidine-2,4-diamine]	88.2	194
C#Cc1cc(Oc2cnc(N)nc2NCC(O)CO)c(C(C)C)cn1 (centres unmarked) [Compound C216, 3-((2-amino-5-((2-ethynyl-5-isopropylpyridin-4-yl)oxy)pyrimidin-4-yl)amino)propane-1,2-diol]	62	65
CC(C)c1cnc(Cl)cc1Oc1cnc(NC(CO)CO)nc1N [Compound C218, 2-((4-amino-5-((2-chloro-5-isopropyl-pyridin-4-yl)oxy)pyrimidin-2-yl)amino) propane-1,3-diol]	186	383
CC(C)c1cnc(Br)cc1Oc1cnc(N)nc1NNC(=O)OC(C)(C)C [Compound C222, tert-butyl 2-(2-amino-5-((2-bromo-5-isopropylpyridin-4-yl)oxy)pyrimidin-4-yl)hydrazine-1-carboxylate]	48	40
CC(C)c1cnc(Br)cc1Oc1cnc(NCCO)nc1NCCO [Compound C226, 2,2′-((5-((2-bromo-5-isopropylpyridin-4-yl)oxy)pyrimidin-2,4-diyl)bis(azanediyl))diethanol]	115	155
C#Cc1cc(Oc2cnc(NC(CO)CO)nc2N)c(C(C)C)cn1 [Compound C228, 2-((4-amino-5-((2-ethynyl-5-isopropyl-pyrdin-4-yl)oxy)pyrimidin-2-yl)amino) propane-1,3-diol]	119	125
C#Cc1cc(Oc2cnc(NCC(O)CO)nc2N)c(C(C)C)cn1 (centres unmarked) [Compound C229, 3-((4-amino-5-((2-ethynyl-5-isopropyl-pyridin-4-yl)oxy)pyrimidin-2-yl)amino) propane-l,2-diol]	65	113
C#Cc1cc(Oc2cnc(NCCO)nc2N)c(C(C)C)cn1 [Compound C230, 2-((4-amino-5-((2-ethynyl-5-isopropyl-pyridin-4-yl)oxy)pyrimidin-2-yl)amino) ethanol]	60	106
C#Cc1cc(Oc2cnc(NC(C)C)nc2N)c(C(C)C)cn1 [Compound C233, 5-((2-ethynyl-5-isopropyl-pyrdin-4-yl)oxy)-N^2-isopropyl-pyrmidine-2,4-diamine]	72	125
CC(C)c1cnc(Br)cc1Oc1cnc(NCC(O)CO)nc1N (centres unmarked) [Compound C235, 3-((4-amino-5-((2-bromo-5-isopropyl-pyridin-4-yl)oxy)pyrimidin-2-yl)amino) propane-1,2-diol]	90	145
CC(C)c1cnc(Br)cc1Oc1cnc(NCCO)nc1N [Compound C236, 2-((4-amino-5-((2-bromo-5-isopropyl-pyridin-4-yl)oxy)pyrimidin-2-yl)amino)ethanol]	88	134
CNc1ncc(Oc2cc(Br)ncc2C(C)C)c(N)n1 [Compound C237, 5-((2-bromo-5-isopropylpyridin-4-yl)oxy)-N^2-methylpyrimidine-2,4-diamine]	363	781
CC(C)c1cnc(Br)cc1Oc1cnc(NC2CC2)nc1N [Compound C238, 5-((2-bromo-5-isopropylpyridin-4-yl)oxy)-N^2-cyclopropyl-pyrimidine-2,4-diamine]	104	206
CC(C)Nc1ncc(Oc2cc(Br)ncc2C(C)C)c(N)n1 [Compound C239, 5-((2-bromo-5-isopropylpyridin-4-yl)oxy)-N^2-isopropyl-pyrimidine-2,4-diamine]	107	131
CC(C)c1ncc(Cl)cc1Oc1cnc(N)nc1N [Reference Compound C10, 5-((5-chloro-2-isopropylpyridin-3-yl)oxy)pyrimidine-2,4-diamine, reference compound]	2510	1820
